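Step 1: Grow cells in 96-well plates. Step 2: Expose to compound for 48 hours at 5 concentrations. Step 3: Interpolate endpoints linearly; if unreached, use highest concentration. The concentration for 50% growth inhibition is given as GI50.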 Active and inactive are the calls of the source. Cut-off read from the data, not from the text of the source: active = GI50 up to about 1.1 µM and inactive = higher.
Assays:
Test in all cases: growth of human tumour cells (NCI), 48 h
[1] = tested on: 786-0
[2] = tested on: A498
[3] = tested on: A549
[4] = tested on: ACHN
[5] = tested on: BT-549
[6] = tested on: CAKI-1
[7] = tested on: CCRF-CEM
[8] = tested on: COLO 205
[9] = tested on: DU-145
[10] = tested on: EKVX
[11] = tested on: HCT-116
[12] = tested on: HCT-15
[13] = tested on: HL-60
[14] = tested on: HOP-62
[15] = tested on: HT-29
[16] = tested on: Hs-578T
[17] = tested on: IGROV-1
[18] = tested on: K562
[19] = tested on: KM12
[20] = tested on: LOX IMVI
[21] = tested on: M14
[22] = tested on: MCF7
[23] = tested on: MDA-MB-231
[24] = tested on: MDA-MB-435
[25] = tested on: MDA-N
[26] = tested on: MOLT-4
[27] = tested on: NCI-H226
[28] = tested on: NCI-H23
[29] = tested on: NCI-H460
[30] = tested on: NCI-H522
[31] = tested on: NCI/ADR-RES
[32] = tested on: OVCAR-3
[33] = tested on: OVCAR-4
[34] = tested on: OVCAR-5
[35] = tested on: OVCAR-8
[36] = tested on: PC-3
[37] = tested on: RPMI-8226
[38] = tested on: SF-268
[39] = tested on: SF-295
[40] = tested on: SF-539
[41] = tested on: SK-MEL-28
[42] = tested on: SK-MEL-2
[43] = tested on: SK-MEL-5
[44] = tested on: SK-OV-3
[45] = tested on: SN12C
[46] = tested on: SNB-19
[47] = tested on: SNB-75
[48] = tested on: SR
[49] = tested on: SW-620
[50] = tested on: T47D
[51] = tested on: TK-10
[52] = tested on: U-251
[53] = tested on: UACC-257
[54] = tested on: UACC-62
[55] = tested on: UO-31
[56] = tested on: HCC 2998
[57] = tested on: Malme-3M
[58] = tested on: RXF 393
[59] = tested on: HOP-92

Measured: GI50

COC(=O)C1C2CCCN2OC1(C)CO (configuration not stated)
> 100 µM: [12]
inactive: [1] > 100 µM | [2] > 100 µM | [3] > 100 µM | [4] > 100 µM | [5] > 100 µM | [6] > 100 µM | [7] > 100 µM | [8] > 100 µM | [9] > 100 µM | [10] > 100 µM | [11] > 100 µM | [13] > 100 µM | [14] > 100 µM | [15] > 100 µM | [16] > 100 µM | [17] > 100 µM | [18] > 100 µM | [19] > 100 µM | [20] > 100 µM | [21] > 100 µM | [22] > 100 µM | [23] > 100 µM | [24] > 100 µM | [25] > 100 µM | [26] > 100 µM | [27] > 100 µM | [28] > 100 µM | [29] > 100 µM | [30] > 100 µM | [31] > 100 µM | [32] > 100 µM | [33] > 100 µM | [34] > 100 µM | [35] > 100 µM | [36] > 100 µM | [37] > 100 µM | [38] > 100 µM | [39] > 100 µM | [40] > 100 µM | [41] > 100 µM | [42] > 100 µM | [43] > 100 µM | [44] > 100 µM | [45] > 100 µM | [46] > 100 µM | [47] > 100 µM | [48] > 100 µM | [49] > 100 µM | [50] > 100 µM | [51] > 100 µM | [52] > 100 µM | [53] > 100 µM | [54] > 100 µM | [55] > 100 µM

O=C(N/N=C\c1cccc2ccccc12)Nc1cccc2ccccc12
inactive: [1] 11.7 µM | [2] 15.7 µM | [3] 44.1 µM | [4] 23.2 µM | [5] 27.7 µM | [6] 25.7 µM | [7] 18.2 µM | [8] 16.9 µM | [9] > 100 µM | [10] 84.7 µM | [56] 33.7 µM | [11] 13.9 µM | [13] 4.32 µM | [14] 7.11 µM | [15] 4.17 µM | [16] 43 µM | [17] 25.9 µM | [18] 3.17 µM | [19] 11 µM | [20] 22.9 µM | [21] 28.8 µM | [22] 7.8 µM | [23] 16 µM | [24] 3.95 µM | [25] 3.84 µM | [26] 4.49 µM | [57] 35.2 µM | [27] 49.4 µM | [28] 23.7 µM | [29] 5.43 µM | [30] 18.6 µM | [31] > 100 µM | [33] > 10 µM | [34] > 100 µM | [35] 32.4 µM | [36] 26.9 µM | [58] 14.1 µM | [38] 63.4 µM | [40] 10.7 µM | [41] 32.9 µM | [42] 28.8 µM | [43] 13.1 µM | [45] 41.9 µM | [46] 16.4 µM | [47] 6.61 µM | [48] 3.29 µM | [49] 10.6 µM | [50] 65.9 µM | [51] 19.9 µM | [52] 11.4 µM | [53] 27.3 µM | [55] 76.9 µM
5.73 µM: [12]

O=C(O)Cc1cccc2c(=O)c3cccc([N+](=O)[O-])c3[nH]c12
71.8 µM: [12]
inactive: [1] > 100 µM | [2] > 100 µM | [3] > 100 µM | [4] > 100 µM | [5] 27 µM | [6] > 100 µM | [7] > 100 µM | [8] 20.7 µM | [9] 58.5 µM | [56] 60.3 µM | [11] > 100 µM | [13] > 100 µM | [14] 31.4 µM | [59] > 100 µM | [15] > 100 µM | [16] 36 µM | [17] > 100 µM | [18] > 100 µM | [19] 85.1 µM | [20] 48.2 µM | [21] 27.8 µM | [22] 80.9 µM | [23] > 100 µM | [24] > 100 µM | [25] > 100 µM | [26] > 100 µM | [57] 29.4 µM | [28] > 100 µM | [29] > 100 µM | [30] 63.2 µM | [31] > 100 µM | [32] 99.8 µM | [33] 38.1 µM | [34] 36.5 µM | [35] > 100 µM | [36] > 100 µM | [37] 12.9 µM | [39] > 100 µM | [40] 29.7 µM | [42] 72.1 µM | [43] 44.7 µM | [44] > 100 µM | [45] 99.1 µM | [46] 43.3 µM | [47] 24.2 µM | [48] 21.4 µM | [49] > 100 µM | [50] > 100 µM | [51] > 100 µM | [52] 38.9 µM | [53] > 100 µM | [54] 25 µM | [55] > 100 µM
